{"source": "patent US6737383B1", "about": "“Herbicidal oxadiazolidines” (priority 1999, dated 2004)", "settings_in_all_cases": "Preemergence, 0 to 100 scale", "key": {"Alexandergrass": {"tested_on": "Alexandergrass", "assay": "Test D Alexandergrass", "type": "in vivo, Brachiaria plantaginea", "in_short": "(§1)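 Weed seeds planted in sandy loam; species kept apart in individual pots or compartments. Preemergence tests: treatment to soil surface within one day. Greenhouse growth, then visual injury scoring at 14–21 days (0–100).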"}, "common ragweed": {"tested_on": "common ragweed", "assay": "Test D common ragweed", "type": "in vivo, Ambrosia elatior", "in_short": "as §1"}, "common groundsel": {"tested_on": "common groundsel", "assay": "Test D common groundsel", "type": "in vivo, Senecio vulgaris", "from_the_text": "(§2) Seeds, tubers, or plant parts of Alexandergrass (Brachiaria plantaginea), bermuda-grass (Cynodon dactylon), common pursiane (Portulaca oleracea), common ragweed (Ambrosia elatior), common groundsel (Senecio vulgaris), dallisgrass (Paspalum dilatatum), goosegrass (Eleusine indica), guineagrass (Panicum maximum), itchgrass (Rottboellia exaltata), Johnson grass (Sorghum halepense), large crabgrass (Digitaria sanguinalis), pitted morningglory (Ipomoea lacunosa), purple nutsedge (Cyperus rotundus), sandbur (Cenchrus echinatus), sourgrass (Trichachne insularis), Spanishneedles (Bidens bipinnata), surinam grass (Brachiaria decumbens) and tall mallow (Malva sylvestris) were planted into greenhouse pots of flats containing greenhouse planting medium. Plant species were grown in separate pots or individual compartments. Preemergence applications were made within one day of planting the seed or plant part.\n(§3) Test chemicals were formulated in a non-phytotoxic solvent mixture which included a surfactant and applied preemergence to the surface of the pot containing seeds in a sandy loam soil. Untreated control pots and treated pots were placed in the greenhouse for growth and visually evaluated for injury 14 to 21 days after herbicide application. Plant response ratings, summarized in Table C, are based on a 0 to 100 scale where 0 is no injury and 100 is complete control. A dash (−) response means no test result."}, "dallisgrass": {"tested_on": "dallisgrass", "assay": "Test D dallisgrass", "type": "in vivo, Paspalum dilatatum", "in_short": "as §1"}, "itchgrass": {"tested_on": "itchgrass", "assay": "Test D itchgrass", "type": "in vivo, Rottboellia exaltata", "in_short": "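Scoring used a 0–100 visual injury scale, with 0 meaning no effect and 100 complete control, assessed 14–21 days after application alongside untreated pots. Preemergence treatments went onto sandy loam surfaces of separately potted seeds within a day of sowing.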"}, "large crabgrass": {"tested_on": "large crabgrass", "assay": "Test D large crabgrass", "type": "in vivo, Digitaria sanguinalis", "in_short": "as §1"}, "pitted morningglory": {"tested_on": "pitted morningglory", "assay": "Test D pitted morningglory", "type": "in vivo, Ipomoea lacunosa", "in_short": "as §1"}, "sandbur": {"tested_on": "sandbur", "assay": "Test D sandbur", "type": "in vivo, Cenchrus echinatus", "in_short": "as §1"}, "Spanishneedles": {"tested_on": "Spanishneedles", "assay": "Test D Spanishneedles", "type": "in vivo, Bidens bipinnata", "from_the_text": "as §2, §3"}, "tall mallow": {"tested_on": "tall mallow", "assay": "Test D tall mallow", "type": "in vivo, Malva sylvestris", "in_short": "as §1"}, "[1]": {"settings": "Rate 32 g/ha, 0 no injury, 100 complete control"}, "[2]": {"settings": "Rate 64 g/ha, 0 no injury, 100 complete control"}, "[3]": {"settings": "Rate 125 g/ha, 0 no injury, 100 complete control"}, "[4]": {"settings": "Rate 16 g/ha, 0 no injury, 100 complete control"}}}
{"smiles": "Cc1cccc(C)c1-n1c(=O)on(C(=O)N(c2ccc(F)cc2F)C(C)C)c1=O", "note": "[Compound 28]", "values": [{"measurement": "Plant response rating, Alexandergrass", "setting": "Alexandergrass; [1]", "result": 0}, {"measurement": "Plant response rating, Alexandergrass", "setting": "Alexandergrass; [2]", "result": 0}, {"measurement": "Plant response rating, Alexandergrass", "setting": "Alexandergrass; [3]", "result": 60}, {"measurement": "Plant response rating, Alexandergrass", "setting": "Alexandergrass; Rate 250 g/ha", "result": 75}, {"measurement": "Plant response rating, C. ragweed", "setting": "common ragweed; [1]", "result": 0}, {"measurement": "Plant response rating, C. ragweed", "setting": "common ragweed; [2]", "result": 0}, {"measurement": "Plant response rating, C. ragweed", "setting": "common ragweed; [3]", "result": 0}, {"measurement": "Plant response rating, C. ragweed", "setting": "common ragweed; Rate 250 g/ha", "result": 0}, {"measurement": "Plant response rating, Com. groundsel", "setting": "common groundsel; [1]", "result": 0}, {"measurement": "Plant response rating, Com. groundsel", "setting": "common groundsel; [2]", "result": 0}, {"measurement": "Plant response rating, Com. groundsel", "setting": "common groundsel; [3]", "result": 0}, {"measurement": "Plant response rating, Com. groundsel", "setting": "common groundsel; Rate 250 g/ha", "result": 0}, {"measurement": "Plant response rating, Dallisgrass", "setting": "dallisgrass; [1]", "result": 30}, {"measurement": "Plant response rating, Dallisgrass", "setting": "dallisgrass; [2]", "result": 75}, {"measurement": "Plant response rating, Dallisgrass", "setting": "dallisgrass; [3]", "result": 85}, {"measurement": "Plant response rating, Dallisgrass", "setting": "dallisgrass; Rate 250 g/ha", "result": 100}, {"measurement": "Plant response rating, Itchgrass", "setting": "itchgrass; [1]", "result": 0}, {"measurement": "Plant response rating, Itchgrass", "setting": "itchgrass; [2]", "result": 20}, {"measurement": "Plant response rating, Itchgrass", "setting": "itchgrass; [3]", "result": 40}, {"measurement": "Plant response rating, Itchgrass", "setting": "itchgrass; Rate 250 g/ha", "result": 40}, {"measurement": "Plant response rating Large crabgrass", "setting": "large crabgrass; [1]", "result": 85}, {"measurement": "Plant response rating Large crabgrass", "setting": "large crabgrass; [2]", "result": 98}, {"measurement": "Plant response rating Large crabgrass", "setting": "large crabgrass; [3]", "result": 100}, {"measurement": "Plant response rating Large crabgrass", "setting": "large crabgrass; Rate 250 g/ha", "result": 100}, {"measurement": "Plant response rating, P. morninglory", "setting": "pitted morningglory; [1]", "result": 0}, {"measurement": "Plant response rating, P. morninglory", "setting": "pitted morningglory; [2]", "result": 0}, {"measurement": "Plant response rating, P. morninglory", "setting": "pitted morningglory; [3]", "result": 0}, {"measurement": "Plant response rating, P. morninglory", "setting": "pitted morningglory; Rate 250 g/ha", "result": 0}, {"measurement": "Plant response rating, Sandbur", "setting": "sandbur; [1]", "result": 0}, {"measurement": "Sandbur plant response rating", "setting": "sandbur; [2]", "result": 0}, {"measurement": "Sandbur plant response rating", "setting": "sandbur; [3]", "result": 0}, {"measurement": "Plant response rating, Sandbur", "setting": "sandbur; Rate 250 g/ha", "result": 0}, {"measurement": "Plant response rating, Spanishneedles", "setting": "Spanishneedles; [1]", "result": 0}, {"measurement": "Spanishneedles plant response rating", "setting": "Spanishneedles; [2]", "result": 60}, {"measurement": "Spanishneedles plant response rating", "setting": "Spanishneedles; [3]", "result": 75}, {"measurement": "Plant response rating, Tall Mallow", "setting": "tall mallow; [1]", "result": 0}, {"measurement": "Tall Mallow plant response rating", "setting": "tall mallow; [2]", "result": 0}, {"measurement": "Tall Mallow plant response rating", "setting": "tall mallow; [3]", "result": 0}, {"measurement": "Plant response rating, Tall Mallow", "setting": "tall mallow; Rate 250 g/ha", "result": 0}]}
{"smiles": "CCn1c(=O)on(C(=O)N(c2ccc(F)cc2)C(C)C)c1=O", "note": "[Compound 107]", "values": [{"measurement": "Plant response rating, Alexandergrass", "setting": "Alexandergrass; [4]", "result": 0}, {"measurement": "Plant response rating, Alexandergrass", "setting": "Alexandergrass; [1]", "result": 90}, {"measurement": "Plant response rating, Alexandergrass", "setting": "Alexandergrass; [2]", "result": 100}, {"measurement": "Plant response rating, Alexandergrass", "setting": "Alexandergrass; [3]", "result": 100}, {"measurement": "Plant response rating, Alexandergrass", "setting": "Alexandergrass; Rate 250 g/ha", "result": 100}, {"measurement": "Plant response rating, Alexandergrass", "setting": "Alexandergrass; Rate 500 g/ha", "result": 100}, {"measurement": "Plant response rating, C. ragweed", "setting": "common ragweed; [4]", "result": 0}, {"measurement": "Plant response rating, C. ragweed", "setting": "common ragweed; [1]", "result": 0}, {"measurement": "Plant response rating, C. ragweed", "setting": "common ragweed; [2]", "result": 0}, {"measurement": "Plant response rating, C. ragweed", "setting": "common ragweed; [3]", "result": 85}, {"measurement": "Plant response rating, C. ragweed", "setting": "common ragweed; Rate 250 g/ha", "result": 100}, {"measurement": "Plant response rating, C. ragweed", "setting": "common ragweed; Rate 500 g/ha", "result": 100}, {"measurement": "Plant response rating, Com. groundsel", "setting": "common groundsel; [4]", "result": 40}, {"measurement": "Plant response rating, Com. groundsel", "setting": "common groundsel; [1]", "result": 75}, {"measurement": "Plant response rating, Com. groundsel", "setting": "common groundsel; [2]", "result": 98}, {"measurement": "Plant response rating, Com. groundsel", "setting": "common groundsel; [3]", "result": 100}, {"measurement": "Plant response rating, Com. groundsel", "setting": "common groundsel; Rate 250 g/ha", "result": 100}, {"measurement": "Plant response rating, Com. groundsel", "setting": "common groundsel; Rate 500 g/ha", "result": 100}, {"measurement": "Plant response rating, Dallisgrass", "setting": "dallisgrass; [4]", "result": 30}, {"measurement": "Plant response rating, Dallisgrass", "setting": "dallisgrass; [1]", "result": 85}, {"measurement": "Plant response rating, Dallisgrass", "setting": "dallisgrass; [2]", "result": 100}, {"measurement": "Plant response rating, Dallisgrass", "setting": "dallisgrass; [3]", "result": 100}, {"measurement": "Plant response rating, Dallisgrass", "setting": "dallisgrass; Rate 250 g/ha", "result": 100}, {"measurement": "Plant response rating, Dallisgrass", "setting": "dallisgrass; Rate 500 g/ha", "result": 100}, {"measurement": "Plant response rating, Itchgrass", "setting": "itchgrass; [4]", "result": 40}, {"measurement": "Plant response rating, Itchgrass", "setting": "itchgrass; [1]", "result": 75}, {"measurement": "Plant response rating, Itchgrass", "setting": "itchgrass; [2]", "result": 85}, {"measurement": "Plant response rating, Itchgrass", "setting": "itchgrass; [3]", "result": 98}, {"measurement": "Plant response rating, Itchgrass", "setting": "itchgrass; Rate 250 g/ha", "result": 100}, {"measurement": "Plant response rating, Itchgrass", "setting": "itchgrass; Rate 500 g/ha", "result": 100}, {"measurement": "Plant response rating Large crabgrass", "setting": "large crabgrass; [4]", "result": 85}, {"measurement": "Plant response rating Large crabgrass", "setting": "large crabgrass; [1]", "result": 98}, {"measurement": "Plant response rating Large crabgrass", "setting": "large crabgrass; [2]", "result": 100}, {"measurement": "Plant response rating Large crabgrass", "setting": "large crabgrass; [3]", "result": 100}, {"measurement": "Plant response rating Large crabgrass", "setting": "large crabgrass; Rate 250 g/ha", "result": 100}, {"measurement": "Plant response rating Large crabgrass", "setting": "large crabgrass; Rate 500 g/ha", "result": 100}, {"measurement": "Plant response rating, P. morninglory", "setting": "pitted morningglory; [4]", "result": 0}, {"measurement": "Plant response rating, P. morninglory", "setting": "pitted morningglory; [1]", "result": 0}, {"measurement": "Plant response rating, P. morninglory", "setting": "pitted morningglory; [2]", "result": 30}, {"measurement": "Plant response rating, P. morninglory", "setting": "pitted morningglory; [3]", "result": 30}, {"measurement": "Plant response rating, P. morninglory", "setting": "pitted morningglory; Rate 250 g/ha", "result": 75}, {"measurement": "Plant response rating, P. morninglory", "setting": "pitted morningglory; Rate 500 g/ha", "result": 100}, {"measurement": "Plant response rating, Sandbur", "setting": "sandbur; [4]", "result": 30}, {"measurement": "Plant response rating, Sandbur", "setting": "sandbur; [1]", "result": 30}, {"measurement": "Sandbur plant response rating", "setting": "sandbur; [2]", "result": 65}, {"measurement": "Sandbur plant response rating", "setting": "sandbur; [3]", "result": 98}, {"measurement": "Plant response rating, Sandbur", "setting": "sandbur; Rate 250 g/ha", "result": 100}, {"measurement": "Plant response rating, Sandbur", "setting": "sandbur; Rate 500 g/ha", "result": 100}, {"measurement": "Plant response rating, Spanishneedles", "setting": "Spanishneedles; [4]", "result": 0}, {"measurement": "Plant response rating, Spanishneedles", "setting": "Spanishneedles; [1]", "result": 0}, {"measurement": "Spanishneedles plant response rating", "setting": "Spanishneedles; [2]", "result": 0}, {"measurement": "Spanishneedles plant response rating", "setting": "Spanishneedles; [3]", "result": 20}, {"measurement": "Plant response rating, Spanishneedles", "setting": "Spanishneedles; Rate 500 g/ha", "result": 100}, {"measurement": "Plant response rating, Tall Mallow", "setting": "tall mallow; [4]", "result": 0}, {"measurement": "Plant response rating, Tall Mallow", "setting": "tall mallow; [1]", "result": 0}, {"measurement": "Tall Mallow plant response rating", "setting": "tall mallow; [2]", "result": 0}, {"measurement": "Tall Mallow plant response rating", "setting": "tall mallow; [3]", "result": 90}, {"measurement": "Plant response rating, Tall Mallow", "setting": "tall mallow; Rate 250 g/ha", "result": 98}, {"measurement": "Plant response rating, Tall Mallow", "setting": "tall mallow; Rate 500 g/ha", "result": 100}]}
